Where two headings read alike, the source gives them in different places.
Assays:
[1] = target: ligand binding domain of human FXR (Homo sapiens (Human), UniProt Q96RI1); experiment: FXR ligand binding assay (LanthaScreen TR-FRET, SRC2-2 peptide recruitment); details: for Emax: read-out: % Efficacy; for pEC50: -log EC50, concentration required to produce 50% activation
Experimental: The affinity of FXR ligands for the ligand binding domain of FXR was determined using a commercially available human FXR ligand binding assay (LanthaScreen, Thermofisher Cat # PV4833). […] Binding of FXR ligands to the FXR ligand binding domain promotes binding of the fluorescein-labelled SRC2-2 peptide. This causes a FRET signal between the terbium-labelled anti-GST antibody and the fluorescein-labelled SRC peptide which are both bound to the FXR ligand binding domain.
Test compounds are dissolved in DMSO and a 3-fold serial dilution series is generated, then further diluted into assay buffer. The compounds are mixed with 5 nM GST-tagged FXR ligand binding domain, 5 nM Tb-labelled anti-GST antibody and 500 nM fluorescein-labelled SRC2-2 peptide in a pH7.4 buffer. The reaction is incubated at room temperature for 1 hour, then the FRET signal is measured as the ratio of the 520 nm/495 nm emission following excitation at 340 nm. The change in FRET signal is plotted against the test article concentration and fit to a 3-parameter logistical equation. The concentration required to produce 50% activation is expressed as pEC50 (−log EC50), and the extent of activation is expressed relative to GW4064 as % activation.

[2] = target: human Farnesoid X receptor ligand-binding domain/Gal4 DNA binding domain chimera (Homo sapiens (Human), UniProt Q96RI1); experiment: Cell-based assay of FXR activation (FXR-UAS-bla HEK 293T beta-lactamase reporter); details: cellular FXR beta-lactamase reporter assay; for Emax: HEK-293T, read-out: % Efficacy
Sequence of human Farnesoid X receptor ligand-binding domain/Gal4 DNA binding domain chimera (Q96RI1 262-486, stated change not applied): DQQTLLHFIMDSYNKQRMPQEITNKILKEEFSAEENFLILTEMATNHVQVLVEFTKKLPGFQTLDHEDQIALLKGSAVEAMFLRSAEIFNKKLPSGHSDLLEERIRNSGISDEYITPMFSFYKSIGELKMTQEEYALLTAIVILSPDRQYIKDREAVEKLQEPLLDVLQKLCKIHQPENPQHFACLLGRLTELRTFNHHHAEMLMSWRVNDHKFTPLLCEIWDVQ
Sequence of human Farnesoid X receptor ligand-binding domain/Gal4 DNA binding domain chimera (P04386 1-147 partner): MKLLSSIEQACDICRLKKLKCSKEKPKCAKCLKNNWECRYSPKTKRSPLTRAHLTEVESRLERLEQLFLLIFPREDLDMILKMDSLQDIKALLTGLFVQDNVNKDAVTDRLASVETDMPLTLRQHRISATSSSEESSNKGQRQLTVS
Experimental: FXR activation was measured using a cell line and procedure obtained from Life Technologies (Cat # K1691). FXR-UAS-bla HEK 293T cells contain a human Farnesoid X receptor ligand-binding domain/Gal4 DNA binding domain chimera stably integrated into the CellSensor® UAS-bla HEK 293T cell line. The CellSensor® UAS-bla HEK 293T contains a beta-lactamase reporter gene under control of a UAS response element stably integrated into HEK 293T cells. Activation of FXR by bound ligands results in transcriptional activation of the beta-lactamase reporter gene, which is detected via assay of beta-lactamase activity.
Cells are harvested and diluted into assay medium containing phenol red-free DMEM supplemented with 2% Charcoal-stripped FBS, pyruvate, non-essential amino acids. Cells are then transferred to a 384 well assay plate. Test compounds are dissolved in DMSO and a 3-fold serial dilution series is generated, then further diluted into assay medium. Compounds in assay medium are added to cells in the 384 well plate and allowed to incubate 16 h at 37 C in the presence of 5% CO2.
A FRET-based […] is loaded into cells as its acetomethoxy ester. Intracellular esterases liberate free CCF4, a cephalosporin core linking 7-hydroxycoumarin to fluorescein. In the presence of beta-lactamase activity produced in the presence of FXR agonists, cleavage of CCF4 spatially separates the two dyes and disrupts FRET, so that exciting the coumarin at 409 nm now produces a blue fluorescence signal at 447 nm. The change in FRET signal is plotted against the test compound concentration and fit to a 3-parameter logistical equation. The concentration required to produce 50% activation is expressed as pEC50 (−log EC50), and the extent of activation is expressed relative to GW4064 as % activation.

[3] = extent of activation relative to GW4064
[4] = FXR-UAS-bla HEK 293T cells, 16 h, pEC50 = -log EC50

Sequence of ligand binding domain of human FXR (Q96RI1 262-486): as the sequence (Q96RI1 262-486, stated change not applied) above

| SMILES | Emax [1, 3] | Emax [2, 3] | EC50 [2, 4] | pEC50 [1] | % Efficacy [1, 3] | pEC50 [2, 4] | % Efficacy [2, 3] | Emax [1] |
| --- | --- | --- | --- | --- | --- | --- | --- | --- |
| O=C(NS(=O)(=O)c1cn[nH]c1)c1ccc(N2C[C@@H]3C[C@H]2C[C@H]3OCc2c(-c3c(Cl)cccc3Cl)noc2C2CC2)cc1 [Compound I-188, N-((1H-pyrazol-4-yl)sulfonyl)-4-((1S,4S,5R)-5-((5-cyclopropyl-3-(2,6-dichlorophenyl)isoxazol-4-yl)methoxy)-2-azabicyclo[2.2.1]heptan-2-yl)benzamide] | 150% | 100% | 6.31 nM | – | – | – | – | – |
| COCC(=O)NCCCCCCCCCCS(=O)(=O)NC(=O)c1ccc(N2C[C@@H]3C[C@H]2C[C@H]3OCc2c(-c3c(Cl)cccc3Cl)noc2C2CC2)c(F)c1 [Compound I-225, N-{10-[({4-[(1S,4S,5R)-5-{[5-cyclopropyl-3-(2,6-dichlorophenyl)-1,2-oxazol-4-yl]methoxy}-2-azabicyclo[2.2.1]heptan-2-yl]-3-fluorophenyl}formamido)sulfonyl]decyl}-2-methoxyacetamide] | 166% | 103% | 2 nM | 9.5 | – | – | – | – |
| O=C(NS(=O)(=O)C1CC1)c1ccc(N2C[C@@H]3C[C@H]2C[C@H]3OCc2c(-c3ccccc3C(F)(F)F)noc2C2CC2)c(F)c1 [Compound I-202, 4-((1S,4S,5R)-5-((5-cyclopropyl-3-(2-(trifluoromethyl)phenyl)isoxazol-4-yl)methoxy)-2-azabicyclo[2.2.1]heptan-2-yl)-N-(cyclopropylsulfonyl)-3-fluorobenzamide] | – | – | – | 8.5 | 215% | 9.4 | 114% | – |
| O=C(O)c1ccc(N2C[C@H]3C[C@@H]2C[C@@H]3OCc2c(-c3c(Cl)cccc3Cl)noc2C2CC2)c(F)c1 [Compound I-131, 4-[(1R,4R,5S)-5-{[5-cyclopropyl-3-(2,6-dichlorophenyl)-1,2-oxazol-4-yl]methoxy}-2-azabicyclo[2.2.1]heptan-2-yl]-3-fluorobenzoic Acid] | – | 94% | 31.6 nM | – | – | – | – | 108% |
| O=C(O)c1cc(F)c2nc(N3C[C@@H]4C[C@H]3C[C@H]4OC(=O)c3c(-c4c(Cl)cccc4Cl)noc3C3(F)CC3)sc2c1 [Compound I-10, 2-[(1S,4S,5R)-5-[3-(2,6-dichlorophenyl)-5-(1-fluorocyclopropyl)-1,2-oxazole-4-carbonyloxy]-2-azabicyclo[2.2.1]heptan-2-yl]-4-fluoro-1,3-benzothiazole-6-carboxylic Acid] | 145% | 111% | 25.1 nM | 7 | – | – | – | – |
| CCCS(=O)(=O)NC(=O)c1cc(F)c2nc(N3C[C@@H]4C[C@H]3C[C@H]4OCc3c(-c4c(Cl)cccc4Cl)noc3C3CC3)sc2c1 [Compound I-29, 2-[(1S,4S,5R)-5-{[5-cyclopropyl-3-(2,6-dichlorophenyl)-1,2-oxazol-4-yl]methoxy}-2-azabicyclo[2.2.1]heptan-2-yl]-4-fluoro-N-(propane-1-sulfonyl)-1,3-benzothiazole-6-carboxamide] | 194% | 118% | 1.58 nM | 7.8 | – | – | – | – |
| O=C(O)C1(c2ccc(N3C[C@@H]4C[C@H]3C[C@H]4OCc3c(-c4c(Cl)cccc4Cl)noc3C3CC3)cc2)CC1 [Compound I-149, 1-{4-[(1S,4S,5R)-5-{[5-cyclopropyl-3-(2,6-dichlorophenyl)-1,2-oxazol-4-yl]methoxy}-2-azabicyclo[2.2.1]heptan-2-yl]phenyl}cyclopropane-1-carboxylic Acid] | 106% | 101% | 63.1 nM | 8.2 | – | – | – | – |
| O=C(O)c1cc(F)c2nc(N3C[C@@H]4C[C@H]3C[C@@H]4OC(=O)c3c(-c4c(Cl)cccc4Cl)noc3C3CC3)sc2c1 [Compound I-34, 2-[(1S,4S,5S)-5-[5-cyclopropyl-3-(2,6-dichlorophenyl)-1,2-oxazole-4-carbonyloxy]-2-azabicyclo[2.2.1]heptan-2-yl]-4-fluoro-1,3-benzothiazole-6-carboxylic Acid] | – | 15% | 398 nM | >4.5 | – | – | – | – |
| CC1(C)CC(S(=O)(=O)NC(=O)c2ccc(N3C(=O)[C@@H]4C[C@H]3C[C@H]4OCc3c(-c4c(Cl)cccc4Cl)noc3C3CC3)cc2)CCO1 (stereo partly drawn) [Compound I-329, 4-[(1S,4R,5R)-5-{[5-cyclopropyl-3-(2,6-dichlorophenyl)-1,2-oxazol-4-yl]methoxy}-3-oxo-2-azabicyclo[2.2.1]heptan-2-yl]-N-[(2,2-dimethyloxan-4-yl)sulfonyl]benzamide] | 162% | 117% | 0.794 nM | 9 | – | – | – | – |
| O=C(O)CNC(=O)c1ccc(N2C(=O)[C@@H]3C[C@H]2C[C@H]3OCc2c(-c3c(Cl)cccc3Cl)noc2C2CC2)cc1 [Compound I-358, 2-({4-[(1S,4R,5R)-5-{[5-cyclopropyl-3-(2,6-dichlorophenyl)-1,2-oxazol-4-yl]methoxy}-3-oxo-2-azabicyclo[2.2.1]heptan-2-yl]phenyl}formamido)acetic Acid] | 155% | 124% | 631 nM | 8 | – | – | – | – |
| O=C(NCCS(=O)(=O)C1CCOCC1)c1ccc(N2C[C@@H]3C[C@H]2C[C@H]3OCc2c(-c3c(Cl)cccc3Cl)noc2C2CC2)cc1F [Compound I-172, 4-[(1S,4S,5R)-5-{[5-cyclopropyl-3-(2,6-dichlorophenyl)-1,2-oxazol-4-yl]methoxy}-2-azabicyclo[2.2.1]heptan-2-yl]-2-fluoro-N-[2-(oxane-4-sulfonyl)ethyl]benzamide] | 160% | 110% | 1 nM | 8.4 | – | – | – | – |
| CCOc1cc(C(=O)O)cc2sc(N3C[C@@H]4C[C@H]3C[C@H]4OCc3c(-c4c(Cl)cccc4Cl)noc3C3CC3)nc12 [Compound I-18, 2-[(1S,4S,5R)-5-{[5-cyclopropyl-3-(2,6-dichlorophenyl)-1,2-oxazol-4-yl]methoxy}-2-azabicyclo[2.2.1]heptan-2-yl]-4-ethoxy-1,3-benzothiazole-6-carboxylic acid] | 135% | 109% | 0.1 nM | 8.8 | – | – | – | – |
| O=C(O)c1cnc(N2C[C@@H]3C[C@H]2C[C@H]3OCc2c(-c3c(Cl)cccc3Cl)noc2C2CC2)c(F)c1 [Compound I-129, 6-[(1S,4S,5R)-5-{[5-cyclopropyl-3-(2,6-dichlorophenyl)-1,2-oxazol-4-yl]methoxy}-2-azabicyclo[2.2.1]heptan-2-yl]-5-fluoropyridine-3-carboxylic Acid] | 152% | 101% | 3.98 nM | – | – | – | – | – |
| CS(=O)(=O)NC(=O)c1ccc(N2C[C@@H]3C[C@H]2C[C@H]3OC(=O)c2c(-c3c(Cl)cccc3Cl)noc2C2CC2)cc1 [Compound I-45, (1S,4S,5R)-2-[4-(methanesulfonylcarbamoyl)phenyl]-2-azabicyclo[2.2.1]heptan-5-yl 5-cyclopropyl-3-(2,6-dichlorophenyl)-1,2-oxazole-4-carboxylate] | 152% | 107% | 25.1 nM | 7.5 | – | – | – | – |
| O=C(O)c1cc(OC(F)(F)F)c2nc(N3C[C@@H]4C[C@H]3C[C@H]4OCc3c(-c4c(Cl)cccc4Cl)noc3C3(F)CC3)sc2c1 [Compound I-25, 2-[(1S,4S,5R)-5-{[3-(2,6-dichlorophenyl)-5-(1-fluorocyclopropyl)-1,2-oxazol-4-yl]methoxy}-2-azabicyclo[2.2.1]heptan-2-yl]-4-(trifluoromethoxy)-1,3-benzothiazole-6-carboxylic Acid] | 172% | 102% | 0.398 nM | 8.4 | – | – | – | – |
